{"source": "patent US20110105326A1", "about": "“Method for Enhancing the Rainfastness of Glyphosate” (BASF SE, priority 2008, published 2011)", "assay_type_in_all_cases": "in vivo", "key": {"[1]": {"system": "Echinochloa colonum (ECHCO)", "assay": "herbicidal action with/without simulated rainfall after treatment, Echinochloa colonum", "conditions": "Example 7, carfentrazone 30 g/ha, glyphosate 1080 g/ha, 0.5% v/v Dash in Carfentrazone and mixture", "method": "(§1) The enhancement of the rainfastness of glyphosate was determined via the herbicidal activity of the mixture comprising glyphosate and the respective rainfastness enhancing herbicidal component B as well as of the single herbicidal components in relation to simulated rainfall at different time intervals.\n(§2) The evaluation of the damage caused by the method and the compositions the according to the present invention and the single herbicidal components was carried out using a scale from 0 to 100%, compared to the untreated control plots. Here, 0 means no damage and 100 means complete destruction of the plants of a respective weed or crop species.\n(§3) The application was performed with a fixed spayer system with air pressurization and with a tank spray volume of two liters. The speed of the spray device over the plants was adjusted for a spray volume of 200 I/ha. The spray device was a spray barr with four nozzles from the type Teejet XR 11002VS with a space of 50 cm between each nozzle.\n(§4) The application was performed at a weed stage of 6 to 8 leaves. After the application of the formulated herbicides the leaves were washed through rain of 20 mm using a fixed rain simulator system at following time interval: 15 min, 30 min, 1, 2, 3, 4 and 6 hours after treatment."}, "[2]": {"system": "Brachiaria decumbens (BRADE)", "assay": "herbicidal action with/without simulated rainfall after treatment, Brachiaria decumbens", "conditions": "Example 8, carfentrazone 30 g/ha, glyphosate 1080 g/ha, 0.5% v/v Dash in Carfentrazone and mixture", "method": "as §1, §2, §3, §4"}, "Bidens pilosa (BIDPI)": {"system": "Bidens pilosa (BIDPI)", "assay": "herbicidal action with/without simulated rainfall after treatment, Bidens pilosa", "conditions": "Example 6, carfentrazone 30 g/ha, glyphosate 1080 g/ha, 0.5% v/v Dash in Carfentrazone and mixture", "method": "as §1, §2, §3, §4"}, "[3]": {"conditions": "simulated rainfall 15 min after treatment, 1 DAA"}, "[4]": {"conditions": "simulated rainfall 15 min after treatment, 2 DAA"}, "[5]": {"conditions": "simulated rainfall 15 min after treatment, 3 DAA"}, "[6]": {"conditions": "simulated rainfall 15 min after treatment, 7 DAA"}, "[7]": {"conditions": "simulated rainfall 2 hours after treatment, 1 DAA"}, "[8]": {"conditions": "simulated rainfall 2 hours after treatment, 2 DAA"}, "[9]": {"conditions": "simulated rainfall 2 hours after treatment, 3 DAA"}, "[10]": {"conditions": "simulated rainfall 2 hours after treatment, 7 DAA"}, "[11]": {"conditions": "without simulated rainfall, 1 DAA"}, "[12]": {"conditions": "without simulated rainfall, 2 DAA"}, "[13]": {"conditions": "without simulated rainfall, 3 DAA"}, "[14]": {"conditions": "without simulated rainfall, 7 DAA"}, "[15]": {"conditions": "simulated rainfall 30 min after treatment, 1 DAA"}, "[16]": {"conditions": "simulated rainfall 30 min after treatment, 2 DAA"}, "[17]": {"conditions": "simulated rainfall 30 min after treatment, 3 DAA"}, "[18]": {"conditions": "simulated rainfall 6 hours after treatment, 1 DAA"}, "[19]": {"conditions": "simulated rainfall 6 hours after treatment, 2 DAA"}, "[20]": {"conditions": "simulated rainfall 6 hours after treatment, 3 DAA"}}}
{"compound": "Cc1nn(-c2cc(CC(Cl)C(=O)O)c(Cl)cc2F)c(=O)n1C(F)F", "note": "(centres unmarked) [Carfentrazone, carfentrazone]", "values": [{"measurement": "herbicidal action against ECHCO", "setting": "[1]; [3]", "result": 9, "unit": "%"}, {"measurement": "herbicidal action against ECHCO", "setting": "[1]; [4]", "result": 33.33, "unit": "%"}, {"measurement": "herbicidal action against ECHCO", "setting": "[1]; [5]", "result": 36, "unit": "%"}, {"measurement": "herbicidal action against ECHCO", "setting": "[1]; [6]", "result": 56, "unit": "%"}, {"measurement": "herbicidal action against ECHCO", "setting": "[1]; [7]", "result": 14, "unit": "%"}, {"measurement": "herbicidal action against ECHCO", "setting": "[1]; [8]", "result": 32.22, "unit": "%"}, {"measurement": "herbicidal action against ECHCO", "setting": "[1]; [9]", "result": 37.66, "unit": "%"}, {"measurement": "herbicidal action against ECHCO", "setting": "[1]; [10]", "result": 50.33, "unit": "%"}, {"measurement": "herbicidal action against ECHCO", "setting": "[1]; [11]", "result": 14.66, "unit": "%"}, {"measurement": "herbicidal action against ECHCO", "setting": "[1]; [12]", "result": 54.66, "unit": "%"}, {"measurement": "herbicidal action against ECHCO", "setting": "[1]; [13]", "result": 76.66, "unit": "%"}, {"measurement": "herbicidal action against ECHCO", "setting": "[1]; [14]", "result": 76, "unit": "%"}, {"measurement": "herbicidal action against BRADE", "setting": "[2]; [3]", "result": 4, "unit": "%"}, {"measurement": "herbicidal action against BRADE", "setting": "[2]; [4]", "result": 10.33, "unit": "%"}, {"measurement": "herbicidal action against BRADE", "setting": "[2]; [5]", "result": 11.66, "unit": "%"}, {"measurement": "herbicidal action against BRADE", "setting": "[2]; [6]", "result": 17.33, "unit": "%"}, {"measurement": "herbicidal action against BRADE", "setting": "[2]; [15]", "result": 10.66, "unit": "%"}, {"measurement": "herbicidal action against BRADE", "setting": "[2]; [16]", "result": 19.66, "unit": "%"}, {"measurement": "herbicidal action against BRADE", "setting": "[2]; [17]", "result": 11.66, "unit": "%"}, {"measurement": "herbicidal action against BRADE", "setting": "[2]; simulated rainfall 30 min after treatment, 7 DAA", "result": 18.66, "unit": "%"}, {"measurement": "herbicidal action against BRADE", "setting": "[2]; [7]", "result": 15, "unit": "%"}, {"measurement": "herbicidal action against BRADE", "setting": "[2]; [8]", "result": 14.33, "unit": "%"}, {"measurement": "herbicidal action against BRADE", "setting": "[2]; [9]", "result": 13, "unit": "%"}, {"measurement": "herbicidal action against BRADE", "setting": "[2]; [10]", "result": 16.66, "unit": "%"}, {"measurement": "herbicidal action against BRADE", "setting": "[2]; [18]", "result": 25, "unit": "%"}, {"measurement": "herbicidal action against BRADE", "setting": "[2]; [19]", "result": 29, "unit": "%"}, {"measurement": "herbicidal action against BRADE", "setting": "[2]; [20]", "result": 27.66, "unit": "%"}, {"measurement": "herbicidal action against BRADE", "setting": "[2]; simulated rainfall 6 hours after treatment, 7 DAA", "result": 26, "unit": "%"}, {"measurement": "herbicidal action against BRADE", "setting": "[2]; [11]", "result": 3.66, "unit": "%"}, {"measurement": "herbicidal action against BRADE", "setting": "[2]; [12]", "result": 18.33, "unit": "%"}, {"measurement": "herbicidal action against BRADE", "setting": "[2]; [13]", "result": 24.33, "unit": "%"}, {"measurement": "herbicidal action against BRADE", "setting": "[2]; [14]", "result": 40.33, "unit": "%"}, {"measurement": "herbicidal action against BIDPI", "setting": "Bidens pilosa (BIDPI); [3]", "result": 51, "unit": "%"}, {"measurement": "herbicidal action against BIDPI", "setting": "Bidens pilosa (BIDPI); [4]", "result": 54.66, "unit": "%"}, {"measurement": "herbicidal action against BIDPI", "setting": "Bidens pilosa (BIDPI); [5]", "result": 53.33, "unit": "%"}, {"measurement": "herbicidal action against BIDPI", "setting": "Bidens pilosa (BIDPI); [15]", "result": 68.66, "unit": "%"}, {"measurement": "herbicidal action against BIDPI", "setting": "Bidens pilosa (BIDPI); [16]", "result": 87.66, "unit": "%"}, {"measurement": "herbicidal action against BIDPI", "setting": "Bidens pilosa (BIDPI); [17]", "result": 94.66, "unit": "%"}, {"measurement": "herbicidal action against BIDPI", "setting": "Bidens pilosa (BIDPI); [7]", "result": 69.33, "unit": "%"}, {"measurement": "herbicidal action against BIDPI", "setting": "Bidens pilosa (BIDPI); [8]", "result": 89, "unit": "%"}, {"measurement": "herbicidal action against BIDPI", "setting": "Bidens pilosa (BIDPI); [9]", "result": 92.33, "unit": "%"}, {"measurement": "herbicidal action against BIDPI", "setting": "Bidens pilosa (BIDPI); [18]", "result": 56, "unit": "%"}, {"measurement": "herbicidal action against BIDPI", "setting": "Bidens pilosa (BIDPI); [19]", "result": 86.66, "unit": "%"}, {"measurement": "herbicidal action against BIDPI", "setting": "Bidens pilosa (BIDPI); [20]", "result": 92.33, "unit": "%"}, {"measurement": "herbicidal action against BIDPI", "setting": "Bidens pilosa (BIDPI); [11]", "result": 69.66, "unit": "%"}, {"measurement": "herbicidal action against BIDPI", "setting": "Bidens pilosa (BIDPI); [12]", "result": 94.33, "unit": "%"}, {"measurement": "herbicidal action against BIDPI", "setting": "Bidens pilosa (BIDPI); [13]", "result": 99, "unit": "%"}]}
